Among the data in patent US20040197268A1, “Method of imaging amyloid deposits using substituted rhodanine derivatives” (priority 1999, published 2004) are melting point and IC50 values, retold here.

Values joined by “and” are separate entries in the source; they are usually repeats but may differ in a detail not shown here. Identical values can stand only once.

For one data set, the target named is T1, Aβ(1-42) (Homo sapiens, UniProt P05067).
T1 construct: Required Aβ(1-42)(California Peptide) was dried from its hexafluoroisopropanol (HFIP) stock solution; purchased California Peptide
Nature of the data set: BATYM Assay (Aβ(1-42) aggregation, Thioflavin T fluorescence). To be noted: Aβ 1-42 final concentration 100 μM, PBS pH 7.4, 37° C., 1 day, ThT fluorescence. It counts as biochemical. A digest of the protocol:
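HFIP-dried Aβ(1-42), redissolved in DMSO/PBS pH 7.4 and filtered, was incubated at 100 μM final with compound (2% DMSO) for 1 day at 37° C. Aggregation read by ThT (30 μM, glycine-NaOH pH 8.5) fluorescence, ex 440/em 485 nm; inhibition corrected for compound blank, IC50 by curve fit, two experiments in triplicate.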

For data set [1], the target named is T2, Aβ(1-40) (Homo sapiens, UniProt P05067).
T2 construct: Soluble Aβ(1-40) peptide (Bachem, Torrance, Calif.); purchased Bachem, Torrance, Calif
Put plainly: BASSR (Beta-Amyloid Self-Seeding Radioassay), inhibitors of self-seeded amyloid fibril growth. It counts as biochemical. To be noted: 30 μM soluble Aβ(1-40) + 125I-labeled Aβ(1-40), pH 7.5, 37° C., 3 to 5 hours, filtration. A digest of the protocol: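 Self-seeding growth of fibrils from 30 μM soluble human Aβ(1-40) plus ^125I-labeled Aβ(1-40) was run in 50 mM sodium phosphate pH 7.5, 100 mM NaCl, 1 M urea, with compound as serial 3-fold dilutions from 100 μM final, DMSO <1%. After 10 min on ice and 3 to 5 hours at 37° C., fibrils were filter-collected and radioactivity counted.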

Data set [2] concerns the target T2, Aβ(1-40). Put plainly: BASST (Beta-Amyloid Self-Seeding, ThioflavinT), inhibitors of self-seeded amyloid fibril growth. To be noted: 30 μM soluble Aβ(1-40), pH 7.5, 37° C., 3 to 5 hours, thioflavin T fluorescence. It is filed as biochemical. A digest of the protocol:
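Self-seeded soluble Aβ(1-40) at 30 μM was mixed on ice with compound (3-fold dilutions, top 100 μM final; DMSO <1%) in pH 7.5 phosphate buffer with 1 M urea. After 10 min on ice, mixtures were incubated 3 to 5 hours at 37° C. Fibril growth was read as thioflavin T fluorescence (ex 440/em 485).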

The target in data set [3] is T3, beta amyloid peptide Aβ(1-40) (Homo sapiens, UniProt P05067).
T3 construct: 0.5 mg/mL AP (140) peptide in 20% HFIP+0.1 μL/assay radioiodinated ^125I Aβ(1-40)
Nature of the data set: BAPA (Beta-Amyloid Peptide Aggregation), pH 6.0. It is filed as biochemical. To be noted: Aβ(1-40) 33 μM, pH 6.0, 2 to 4 hours at room temperature, filtration. A digest of the protocol: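 HFIP-monomerised Aβ(1-40) with ^125I Aβ(1-40) tracer in 50 mM phosphate pH 6.0, DMSO <1%, incubated 2 to 4 h at room temperature. Aggregates collected by 0.2 μm filtration and counted by scintillation, background-corrected.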

T1 sequence (P05067 672-713 limits assumed): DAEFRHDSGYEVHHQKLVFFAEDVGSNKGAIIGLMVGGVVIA
T3 sequence (P05067 672-711 limits assumed): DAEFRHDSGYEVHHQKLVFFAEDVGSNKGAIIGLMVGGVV
T2 sequence (P05067 672-711 limits assumed): as above

The molecule `CCCCCN(CCCCC)c1ccc(/C=C2\SC(=S)N(CC(=O)NS(=O)(=O)c3ccc(F)cc3)C2=O)cc1` [Example 27, (Z) N-{2-[5-(4-Dipentylamino-benzylidene)-4-oxo-2-thioxo-thiazolidin-3-yl]-acetyl}-4-fluoro-benzenesulfonamide] displayed a melting point of 130 to 132 °C. The IC50 at Aβ(1-42) is 2020 nM. The IC50 on Aβ(1-40) [1] came out at 7 µM. Further, at Aβ(1-40) [2], 2000 nM corresponded to half-maximal inhibition (IC50). Besides, the IC50 in data set [3] came to 93 µM.
Taken in the same sequence, the figures for `CCCC1CCN(c2ccc(/C=C3\SC(=S)N(Cc4cc(=O)c(O)co4)C3=O)cc2)CC1` [Example 34, (Z) 3-(5-Hydroxy-4-oxo-4H-pyran-2-ylmethyl)-5-[4-(4-propyl-piperidin-1-yl)-benzylidene]-2-thioxo-thiazolidin-4-one] were 253 °C, 2380 nM, over 100 µM, 2000 nM and over 60 µM.
In the same order, the values of `CCCCN(CCCC)c1ccc(/C=C2\SC(=S)N(CC(=O)NS(=O)(=O)C(F)(F)F)C2=O)cc1` [Example 18, (Z) N-{[5-(4-Dibutylamino-benzylidene)-4-oxo-2-thioxo-thiazolidin-3-yl]-acetyl}-C,C,C-trifluoro-methanesulfonamide] are 228 to 230 °C, 1880 nM, 5 µM, 600 nM and 122 µM.
Turning to `CCCCCN(CCCCC)c1ccc(/C=C2\SC(=S)N(Cc3nnn[nH]3)C2=O)cc1` [Example 17], the melting point was in the range of 208 to 210 °C. Also, the IC50 on Aβ(1-42) was determined as 1870 nM. Also, the IC50 at Aβ(1-40) [1] was 10 µM and 5 µM. Further, on Aβ(1-40) [2], the IC50 was 1000 nM and 1500 nM. Moreover, the IC50 in data set [3] is 2 µM.
For the molecule `CCCCCCN(C)c1ccc(/C=C2\SC(=S)N(CCNS(=O)(=O)c3ccccc3)C2=O)cc1` [Example 11, (Z) N(2-{5-[4-(Hexyl-methyl-amino)benzylidene]-4-oxo-2-thioxo-thiazolidin-3-yl}-ethyl)-benzenesulfonamide], the melting point was in the range of 152 to 155 °C. This molecule showed an IC50 on Aβ(1-42) of 2190 nM. At Aβ(1-40) [1], the IC50 is over 100 µM. At Aβ(1-40) [2], this molecule showed an IC50 of 9000 nM. Besides, inhibition in data set [3] was half-maximal at 25 µM (IC50).
For `O=C1/C(=C/c2ccc(N3CC[C@@H]4CCCC[C@H]4C3)cc2)SC(=S)N1Cc1nnn[nH]1` [Example 23, (Z) 5-[(4aS,8aR)-4-(Octahydro-isoquinolin-2-yl)-benzylidene]-3-(1H-tetrazol-5-ylmethyl)-2-thioxo-thiazolidin-4-one], the melting point is 247 °C. Besides, on Aβ(1-42), the IC50 was determined as 3330 nM. For the same molecule, the IC50 at Aβ(1-40) [1] was over 100 µM. In addition, the IC50 on Aβ(1-40) [2] is 1000 nM and 500 nM. Further, half-maximal inhibition in data set [3] (IC50) was put at 30 µM.
Molecule `CCCCCCN(C)c1ccc(/C=C2\SC(=S)N(CCNS(=O)(=O)C(F)(F)F)C2=O)cc1` [Example 12, (Z) C,C,C-Trifluoro-N-(2-{5-[4-(hexyl-methyl-amino)benzyldene]-4-oxo-2-thioxo-thiazolidin-3-yl}-ethyl)methanesulfonamide] registered a melting point of 170 to 173 °C. Also, the IC50 against Aβ(1-42) turned out to be 1640 nM. Also, at Aβ(1-40) [1], the IC50 is over 100 µM. This molecule displayed an IC50 at Aβ(1-40) [2] of 1000 nM. In data set [3], this molecule returned an IC50 of 26 µM.
`CCCCCCN(C)c1ccc(/C=C2\SC(=S)N(CCS(=O)(=O)NC(=O)C(F)(F)F)C2=O)cc1` [Example 3, (Z) 2-{5-[4-(Hexyl-methyl-amino)-benzylidene]-4-oxo-2-thioxo-thiazolidin-3-yl}-ethanesulfonic acid trifluoroacetyl-amide] showed a melting point of 158 to 162 °C. Moreover, the IC50 on Aβ(1-42) was found to be 2240 nM. For the same molecule, on Aβ(1-40) [1], the IC50 stood at 8 µM. The same molecule gave an IC50 against Aβ(1-40) [2] of 300 nM. The IC50 in data set [3] is over 100 µM.
`CCCCCCN(C)c1ccc(/C=C2\SC(=S)N(Cc3nnn[nH]3)C2=O)cc1` [Example 16, (Z) 5-[4-(Hexyl-methyl-amino)benzylidene]-3-(1H-tetrazol-5-ylmethyl)-2-thioxo-thiazolidin-4-one]: the melting point lay within 198 to 200 °C. For the same molecule, at Aβ(1-42), it took 1940 nM to reach half-maximal inhibition (IC50). The IC50 on Aβ(1-40) [1] stood at 7 µM. The IC50 on Aβ(1-40) [2] came to 3000 nM. In addition, half-maximal inhibition in data set [3] (IC50) required 38 µM.
In the same order, the values of `CCCCCCN(C)c1ccc(/C=C2\SC(=S)N(CC(=O)NS(=O)(=O)C(F)(F)F)C2=O)cc1` [Example 7, (Z) C,C,C-Trifluoro-N-({5-[4-(hexyl-methyl-amino)-benzylidene]4-oxo-2-thioxo-thiazolidin-3-yl}-acetyl)methanesulfonamide] are 94 to 97 °C, 1700 nM, 1 µM, 400 nM and 70 µM.
Regarding `CCCCN(CCCC)c1ccc(/C=C2\SC(=S)N(CC(=O)NS(=O)(=O)c3ccccc3)C2=O)cc1` [Example 19, (Z) N-{[5-(4-Dibutylamino-benzytidene)-4-oxo-2-thioxo-thiazolidin-3-yl]-acetyl}-benzenesulfonamide], the melting point was 112 to 115 °C. Also, on Aβ(1-42), half-maximal inhibition (IC50) required 1770 nM. The IC50 at Aβ(1-40) [1] was 5 µM. For the same molecule, the midpoint of inhibition against Aβ(1-40) [2], the IC50, lay at 1100 nM. In data set [3], this molecule returned an IC50 of 129 µM.
